Like-named read-outs stand apart in the source and are kept apart here.
Legend:
[1] = target: T1, A1 receptor (Sus scrofa, UniProt I3LEN5); assay: biochemical
T1 sequence (I3LEN5 1-326): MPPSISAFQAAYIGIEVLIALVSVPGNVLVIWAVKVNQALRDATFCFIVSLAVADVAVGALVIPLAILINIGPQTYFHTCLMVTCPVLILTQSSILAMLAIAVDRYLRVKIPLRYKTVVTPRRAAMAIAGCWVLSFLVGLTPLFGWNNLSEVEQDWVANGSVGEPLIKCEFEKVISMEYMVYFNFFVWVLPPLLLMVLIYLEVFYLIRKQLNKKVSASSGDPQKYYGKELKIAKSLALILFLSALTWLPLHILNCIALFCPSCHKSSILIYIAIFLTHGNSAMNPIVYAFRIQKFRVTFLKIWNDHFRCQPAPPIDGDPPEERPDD
Experimental: (§1) Pig striatal membranes were prepared as previously described by H. Bruns et al. in Molecular Pharmacology 29 (1986) pages 331-344. ^3H-NECA, a non-selective adenosine receptor agonist was used to label both A1 and A2 receptors. IC50 values were derived from the displacement curves by weighted non-linear least-square curve fitting to the Langmuir equation and pKD values calculated.

[2] = target: T2, A2 receptor (Sus scrofa, UniProt K9IW67); assay: Affinity for adenosine receptors, displacement of 3H-NECA binding in striatal membranes (A2); design: species or system Pig
T2 construct: Pig striatal membranes were prepared as previously described; from tissue; host or cells: pig striatum (membranes)
T2 sequence (K9IW67 1-409): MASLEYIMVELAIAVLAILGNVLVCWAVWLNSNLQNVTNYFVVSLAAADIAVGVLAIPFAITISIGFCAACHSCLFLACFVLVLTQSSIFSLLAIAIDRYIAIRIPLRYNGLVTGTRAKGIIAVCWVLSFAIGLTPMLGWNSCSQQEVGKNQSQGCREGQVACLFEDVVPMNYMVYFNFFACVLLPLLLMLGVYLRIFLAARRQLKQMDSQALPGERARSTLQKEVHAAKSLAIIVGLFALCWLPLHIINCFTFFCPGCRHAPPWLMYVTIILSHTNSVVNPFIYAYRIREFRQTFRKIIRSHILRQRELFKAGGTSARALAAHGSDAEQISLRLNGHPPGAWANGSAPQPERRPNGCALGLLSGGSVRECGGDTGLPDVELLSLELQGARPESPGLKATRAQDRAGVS
Experimental: as §1

[3] = system: A1 receptor; conditions: ratio of A2 KD to A1 KD, pig striatal membranes
Experimental: as §1

[4] = Plasma free fatty acids and triglycerides in the monkey (dyslipidemias with elevated serum triglycerides); format: in vivo; conditions: Rhesus monkey
Excerpt: Several studies have shown a positive correlation between serum triglyceride levels and the risk for coronary heart disease (CHD) (Grundy, in Cholesterol and Atherosclerosis: Diagnosis and Treatment, Lippincott, Philadelphia (1990)). The value of reducing elevated triglyceride levels as an approach to reducing the risk of CHD emerged from the Helsinki Heart Study where, following treatment with gemfibrozil, the greatest reduction in serious coronary events occured in Type IIB hyperlipidemic patients in whom both LDL-cholesterol and total serum triglycerides were elevated.

In the case of `CCNC(=O)[C@H]1O[C@@H](n2cnc3c(N)nc(NCCc4ccc(CCC(=O)O)cc4)nc32)[C@H](O)[C@@H]1O` [CGS 21680, 2-[p-(2-Carboxyethyl)phenethylamino]-5'-N-ethyl carboxamido-adenosine], the Kd [1] is reported as 4360 ± 1080 nM.

In the case of `Nc1nc(Nc2ccccc2)nc2c1ncn2[C@@H]1O[C@H](CO)[C@@H](O)[C@H]1O` [CV 1808, 2-Phenylaminoadenosine, reference compound], the Kd [1] is reported as 2460 ± 757 nM, the Kd ([2]; Pig striatal membranes, 3H-NECA label, mean ± spread, read-out: A2 (KD;nM)) is reported as 269 ± 70 nM and the “A1:A2 selectivity” value [3] is reported as 0.1.

With `CO[C@@H]1[C@H](O)[C@@H](CO)O[C@H]1n1cnc2c(NC3CCCCC3)ncnc21` [Compound No. 7 1.5 H2O, 6-cyclohexyl-2'-O-methyl-adenosine 1.5 hydrate] the Kd [1] was 23 ± 2 nM, the “plasma free fatty acids” value [4] was “substantial and long-lasting falls” and the plasma triglycerides [4] was “substantial and long-lasting falls”. For the same molecule, the Kd [2] was 24500 ± 5160 nM and the “A1:A2 selectivity” value [3] was 1090.

Source: patent publication EP0490818B1, “6-CYCLOHEXYL-2'-0-METHYL-ADENOSINE HYDRATE AND USES THEREOF” (Novartis AG, priority 1990, dated 1992)
